From patent publication US12157885B2, “Methods of screening using barcoded libraries” (President and Fellows of Harvard College, priority 2016, dated 2024)

Test system: library of barcoded yeast strains expressing toxic aggregation prone proteins, non-aggregation toxic proteins or benign control proteins
Test: Barcoded mixed pool growth competition of a yeast library under inducing conditions (galactose) with or without a small molecule, with barcodes quantified by next-generation sequencing
Type: cell-based
Conditions: for rescue of growth of strains expressing toxic aggregation prone proteins (barcode representation relative to no drug condition): difference >3 standard deviations vs no drug highlighted
Procedure: Several experiments were conducted in which all members of the library were mixed at equal amounts and the library was grown under non-inducing conditions (glucose) or in the presence of galactose (inducing condition) with or without a small molecule of interest. After overnight outgrowth, genomic DNA was extracted from each of the experimental conditions and barcodes were quantified.
A library of barcoded yeast and their associated genes of interest were subjected to growth under inducing conditions in the presence or absence of small molecules. In FIG. 5A, Lovastatin at 2 ug/ml was added to the outgrowth media. In FIG. 5B, Celestrol at 1 ug/ml was added to the outgrowth media. Growth in the presence of drug was normalized to the without drug condition and plotted relative to the no drug condition. […] “416” and “426” refers to the plasmid background used to express each of the genes tested.
For growth competition experiments, yeast strains each with a unique DNA barcode along with containing a plasmid encoding a control or toxic protein of interest were first grown overnight to saturation in SC-URA+glucose. The various barcoded lines were then mixed in defined ratios and passaged at a 1:1000 dilution into fresh SC-URA+glucose or SC-URA+galactose media. For experiments involving small molecules, yeast were diluted into SC-URA+galactose media containing a given small molecule of interest and allowed to grow for 36 hours before genomic DNA was extracted from the population of cells.
Yeast lysis was performed as previously described. See Lõoke, M., Kristjuhan, K. & Kristjuhan, A. Extraction of genomic DNA from yeasts for PCR-based applications. BioTechniques 50, 325-328 (2011). Briefly, 300-900 ul of overnight culture was spun down and resuspended in 300 ul of 200 mM LiAc, 1% SDS solution. Cells were then vortexed several times and incubated at 70° C. for 10-15 minutes. 900 ul of >95% ethanol was then added to the samples and they were inverted several times along with vortexing to mix the solution well. The samples were then spun at 15,000 g for 3 minutes and the supernatant was discarded. Pellets were washed 1× with 70% ethanol, spun at 15,000 g for 3 minutes and the supernatant was again removed. The pellet was then allowed to air dry for 5-10 minutes before adding in 100 ul of 10 mM Tris pH 8.5 and pipetting up and down to break up the pellet. Samples were then placed in a heating block set to 37° C. for 10 minutes, spun again at 15,000 g for 3 minutes and then the supernatant was collected and used in downstream DNA analysis.
Genomic DNA was extracted and barcoded using one of four internally barcoded forward primers, […] NNNN CACAG […]; […] NNNN GTGTT […]; […] NNNN TCTTG […]; […] NNNN AGCTC […]; in combination with the reverse primer, […]aacgccgccatccagtttaaacgag. Following PCR, the amplicons were purified and normalized using SequalPrep Normalization Plate (96) kit (Thermo Fisher). A second round of PCR was next performed using the Illumina Truseq adapters in order to allow individual samples to be identified during subsequent data analysis. The reads were aligned to a list of the 96 possible barcodes (see Ho, C. H. et al. A molecular barcoded yeast ORF library enables mode-of-action analysis of bioactive compounds. Nat. Biotechnol. 27, 369-377 (2009) using BWA. The depth of coverage for each barcode was calculated for each of the samples using a custom script and normalized to the total number of reads per sample.

Row | Compound | rescue of growth of strains expressing toxic aggregation prone proteins (barcode representation relative to no drug condition) (Celestrol at 1 ug/ml in outgrowth media, FIG. 5B) | change in growth of control strains expressing benign proteins (eYFP, mCherry) (Celestrol at 1 ug/ml, FIG. 5B) | rescue of strains expressing proteins that cause toxicity in yeast outside of protein aggregation (Celestrol at 1 ug/ml, FIG. 5B) | rescue of growth of strains expressing toxic aggregation prone proteins (barcode representation relative to no drug condition) (Lovastatin at 2 ug/ml in outgrowth media, FIG. 5A) | change in growth of control strains expressing benign proteins (eYFP, mCherry) (Lovastatin at 2 ug/ml, FIG. 5A) | rescue of strains expressing proteins that cause toxicity in yeast outside of protein aggregation (Lovastatin at 2 ug/ml, FIG. 5A)
1 | CC1=C(O)C(=O)C=C2C1=CC=C1[C@@]2(C)CC[C@@]2(C)[C@@H]3C[C@](C)(C(=O)O)CC[C@]3(C)CC[C@]12C [Celestrol] | showed an ability to rescue the growth of some of the toxic aggregation prone proteins | nor did control strains expressing benign proteins such as eYFP and mCherry exhibit a significant change in their growth | none of the proteins that cause toxicity in yeast through alternative methods outside of protein aggregation showed significant rescue | – | – | –
2 | CC[C@H](C)C(=O)O[C@H]1C[C@@H](C)C=C2C=C[C@H](C)[C@H](CC[C@@H]3C[C@@H](O)CC(=O)O3)[C@H]21 [Lovastatin] | – | – | – | showed an ability to rescue the growth of some of the toxic aggregation prone proteins | nor did control strains expressing benign proteins such as eYFP and mCherry exhibit a significant change in their growth | none of the proteins that cause toxicity in yeast through alternative methods outside of protein aggregation showed significant rescue
